Our source for the inhibition and IC50 values is ChEMBL document CHEMBL1157646, “Melanogenesis inhibitors from the desert plant Anastatica hierochuntica in B16 melanoma cells” (Bioorg Med Chem, 2010).

The nature of series [1]: Inhibition of theophylline-stimulated melanogenesis in mouse B16-4A5 cells at 300 uM after 72 hrs. To be noted: B16-4A5, 72 h. In kind it is functional.
The nature of series [2]: Inhibition of theophylline-stimulated melanogenesis in mouse B16-4A5 cells at 1000 uM after 72 hrs. To be noted: B16-4A5, 72 h. Type of series: functional.
Series [3] is described as follows: Inhibition of theophylline-stimulated melanogenesis in mouse B16-4A5 cells at 100 uM after 72 hrs. To be noted: B16-4A5, 72 h. Type of series: functional.
A short description of series [4]: cells. To be noted: Mus musculus, B16-4A5, 72 h, read-out: INH.
Description: Inhibition of theophylline-stimulated melanogenesis in mouse B16-4A5 cells at 30 uM after 72 hrs
Series [5] is described as follows: cells. The note with it: Mus musculus, B16-4A5, 72 h, read-out: INH. The source holds these as a separate data set.
Description: Inhibition of theophylline-stimulated melanogenesis in mouse B16-4A5 cells at 10 uM after 72 hrs
Series [6] can be described thus: Toxicity in mouse B16-4A5 cells assessed as inhibition of cell proliferation at 10 uM in presence of 1 mM theophylline after 72 hrs by WST8 dye reduction assay. Type of series: cell-based. (In general: Tetrazolium dyes change colour on reduction, which living cells bring about.)
Series [7] addresses T1, Tyrosinase (Agaricus bisporus) (UniProt O42713).
T1 sequence (whole entry): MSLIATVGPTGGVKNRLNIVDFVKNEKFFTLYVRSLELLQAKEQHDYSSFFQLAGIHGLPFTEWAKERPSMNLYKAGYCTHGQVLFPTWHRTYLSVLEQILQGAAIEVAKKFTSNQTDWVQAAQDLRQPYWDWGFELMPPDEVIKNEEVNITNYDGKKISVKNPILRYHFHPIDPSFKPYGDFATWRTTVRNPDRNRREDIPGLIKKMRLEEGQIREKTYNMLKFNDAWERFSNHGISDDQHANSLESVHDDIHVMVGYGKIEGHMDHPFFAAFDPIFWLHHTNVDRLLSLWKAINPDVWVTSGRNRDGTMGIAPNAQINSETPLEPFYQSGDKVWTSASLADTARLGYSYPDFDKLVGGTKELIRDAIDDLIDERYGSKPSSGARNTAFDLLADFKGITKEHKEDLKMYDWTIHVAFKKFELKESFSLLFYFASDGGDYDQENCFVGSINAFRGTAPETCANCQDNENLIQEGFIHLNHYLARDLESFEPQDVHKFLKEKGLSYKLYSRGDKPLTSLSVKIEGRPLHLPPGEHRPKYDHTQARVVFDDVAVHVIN
Description: Inhibition of mushroom tyrosinase at 1 uM.

Series [8] in a line: cells. To be noted: Mus musculus, B16-4A5, 72 h, read-out: INH. The source holds these as a separate data set.
Description: Inhibition of theophylline-stimulated melanogenesis in mouse B16-4A5 cells at 1 uM after 72 hrs
Series [9] is described as follows: Toxicity in mouse B16-4A5 cells assessed as inhibition of cell proliferation at 3 uM in presence of 1 mM theophylline after 72 hrs by WST8 dye reduction assay. Type of series: cell-based.
A short description of series [10]: Toxicity in mouse B16-4A5 cells assessed as inhibition of cell proliferation at 30 uM in presence of 1 mM theophylline after 72 hrs by WST8 dye reduction assay. In kind it is cell-based.
The target of series [11] is T1, Tyrosinase (Agaricus bisporus). Briefly: Inhibition of mushroom tyrosinase assessed as inhibition of melanin production from dopachrome by autoxidation at 100 uM.
Series [12] can be described thus: cells. To be noted: Mus musculus, B16-4A5, 72 h, read-out: INH. The source holds these as a separate data set.
Description: Inhibition of theophylline-stimulated melanogenesis in mouse B16-4A5 cells at 3 uM after 72 hrs
The next series addresses T2, Tyrosinase (Agaricus bisporus, UniProt O42713).
T2 sequence (O42713 whole entry): T1 sequence (whole entry)
Description: Inhibition of mushroom tyrosinase.

The target of series [13] is T1, Tyrosinase (Agaricus bisporus). Description: Inhibition of mushroom tyrosinase at 3 uM.
Series [14] in a line: Toxicity in mouse B16-4A5 cells assessed as inhibition of cell proliferation at 1 uM in presence of 1 mM theophylline after 72 hrs by WST8 dye reduction assay. Type of series: cell-based.

Molecules are shown by their SMILES. Calls of active or inactive are those of the source. The calls are words filed in the database; no cut-off is given here.

On to `OC[C@H]1O[C@@H](Oc2ccc(O)cc2)[C@H](O)[C@@H](O)[C@@H]1O` [ARBUTIN], for which, in series [1], the inhibition at 300 µM was found to be 61.5%. Also, in [2], the inhibition at 1000 µM stood at 83.7%. Also, the inhibition at 100 µM in [3] was 38.1%. For the same compound, the inhibition at 30 µM in “cells [4]” was found to be 20.4%. In the series “cells [5]”, the inhibition at 10 µM stood at 10.6%.
A word on the IC50: it is the concentration at which inhibition is half-maximal. Read a high IC50 as a need for much substance. As to `O=c1c(O)c(-c2ccc(O)c(O)c2)oc2cc(O)cc(O)c12` [QUERCETIN], in series [6], the inhibition at 72 h, 10 µM was -8.6%. Moreover, the inhibition amounted to 3.5% in series [7] and 4.8% in series [13]. For the same compound, in “cells [8]”, the inhibition at 1 µM amounted to 13.9%. The inhibition at 72 h, 3 µM in series [9] is -7.7%. Moreover, in series [10], the inhibition at 72 h, 30 µM came out at 11.9%. Besides, the inhibition entry in [11] was “inactive”. Also, the inhibition at 3 µM in the series “cells [12]” was determined as 17.1%. Moreover, on Tyrosinase, the IC50 amounted to 31 µM. Further, the inhibition at 72 h, 1 µM in series [14] is -8.8%. Also, in “cells [4]”, the inhibition at 30 µM was determined as 72.5%. The inhibition at 10 µM in “cells [5]” amounted to 34.3%.
